According to patent US12370183B2, “Compositions and methods for treating malaria” (Rutgers, The State University of New Jersey, priority 2020, dated 2025):

Tests used:
[1] = system: Proguanil resistant attB Pf Dd2; experiment: P. falciparum (Dd2 strain) asexual blood stage assay, proguanil resistant attB; type: cell-based, Plasmodium falciparum; conditions: for IC50: Plasmodium falciparum, DD2, 72 h, read-out: Proguanil resistant attB Pf Dd2 IC50 (uM)
Description: (§1) Assays using human blood cells infected with Plasmodium falciparum: (Pf) parasites, both wild-type strains as well as mutant drug-resistant strains, were performed as described below. Wild-type strains used were aatB Pf (Dd2 strain) and Pf (Dd2 strain). Mutant strains used were proguanil resistant attb Pf (Dd2 strain), dihydroorotate dehydrogenase (DHODH) deficient aatB Pf (Dd2 strain), and DHODH deficient and proguanil resistant Pf (Dd2 strain).
(§2) 2008 Jul. 1; 105(26):9059-64.
(§3) Parasitemia was estimated by blood smear Giemsa stain and visual inspection under the microscopic.
The screening plate was prepared by centrifuging for parasite culture for 5 min at 800×g at RT (low brake) and removing supernatant. A parasite suspension was prepared with 0.3% parasitemia and 4% hematocrit in screening medium (SM). The suspension was gassed with a gas mixture of 1% oxygen, 3% carbon dioxide, 96% nitrogen and stored at 37° C. for until ready to use. 50 nl of 1 mM compound in DMSO was prespotted into 1536 well plates (final drug conc. of 12.5 μM, final DMSO conc. of 0.625%) with the acoustic dispenser ATS. Controls were Artemisinin, Chloroquine, and DMSO. 8 μl of SM was dispensed into 1,536-well, black, clear-bottom plates (Greiner) using the MultiFlo™ Microplate dispenser (BioTek) (final parasitemia of 0.3% and 2.5% hematocrit in SM). The plates were incubated at 37° C. for 72 h with water-soaked tissue in a closed ziploc bag gassed with 1% oxygen, 3% carbon dioxide, 96% nitrogen.
(§4) 2 μl of detection reagent mixture (10×SYBR Green I (Invitrogen) in Lysis buffer (20 mM Tris/HCl, 5 mM EDTA, 0.16% Saponin wt/vol, 1.6% Triton X vol/vol) was added. Assay plates were read from the bottom by using the 2104 EnVision® Multilabel Reader (PerkinElmer) (485 nm excitation, 530 nm emission). The results are presented in Table 5 below.

[2] = system: DHODH deficient + Proguanil resistant Pf Dd2; experiment: P. falciparum (Dd2 strain) asexual blood stage assay, DHODH deficient + proguanil resistant; type: cell-based; conditions: Plasmodium falciparum, DD2, 72 h, read-out: DHODH deficient + Proguanil resistant Pf Dd2 IC50 (uM)
Description: as §1, §2, §3
(§5) The screening plate was prepared by centrifuging for parasite culture for 5 min at 800×g at RT (low brake) and removing supernatant. A parasite suspension was prepared with 0.3% parasitemia and 4% hematocrit in screening medium (SM). The suspension was gassed with a gas mixture of 1% oxygen, 3% carbon dioxide, 96% nitrogen and stored at 37° C. for until ready to use. […]
as §4

Pf Dd2 = experiment: P. falciparum (Dd2 strain) asexual blood stage assay, Pf Dd2; type: cell-based; conditions: Plasmodium falciparum, DD2, 72 h, read-out: Pf Dd2 IC50 (uM)
Description: as §1, §2, §3, §5, §4

[3] = system: P. berghei Luciferase sporozoites in HepG2-A16-CD81EGFP cells; experiment: P. berghei Luciferase liver stage assay; type: cell-based; conditions: Plasmodium berghei, 48 h after infection, bioluminescence, read-out: IC50 against sporozoite infection of liver cells (P. berghei Luciferase)
Description: Compounds 66 and 177 were tested for activity against sporozoite infection of liver cells as well the viability of liver schizonts of the murine Plasmodium berghei species transformed with Luciferase by using an assay adapted from S. Swann et al. (2016) High-Throughput Luciferase-Based Assay for the Discovery of Therapeutics That Prevent Malaria. ACS Infectious Diseases 2: 4. 281-293 (2016).
Compounds 66 and 177 were tested for activity against sporozoite infection of liver cells of the murine Plasmodium berghei species transformed with Luciferase by using the following P. berghei Luciferase liver stage assay.
Hepatic human transformed cells (HepG2) pre-treated for 18 hours with either compound 66 or 177 were infected with freshly dissected P. berghei Luciferase sporozoites. After another 48 hours of incubation with the compound, the viability of P. berghei exoerythrocytic forms (EEF) was measured by bioluminescence.
Plasmodium berghei Luciferase sporozoites were obtained by dissection of infected A. stephensi mosquito salivary glands supplied by the New York University Insectary. Dissected salivary glands were homogenized in a glass tissue grinder and filtered twice using Steriflip Vacuum-Driven Filtration System (20 μm pore size, Millipore) and counted using a hemocytometer. The sporozoites were kept on ice until needed. […]

[4] = Stability of the pyrrolinone to acid followed by H-1 NMR; type: physicochemical; conditions: methanol-D4, deuterated acetic acid dropwise; reversed by sodium hydride
Description: Without wishing to be bound by any particular theory or mechanism of action, it can be contemplated that the unique aminal structure of the pyrrolinones imparts specific chemical behavior. Aminals are normally unstable functionalities that are prone to hydrolysis. To test the stability of the […], a solution of 177 in methanol-D4 was treated dropwise with deuterated acetic acid. The experiment was followed by H-1 NMR analysis by observing the reduction of the peaks at 6.12 ppm and 8.73 ppm and the appearance of a peak at 9.42. […] Basifying the solution with sodium hydride returns the mixture to pyrrolinone.

Row | Structure (SMILES) | IC50 [1] [µM] | potency against a proguanil resistant attB mutant strain ([1]; in words) | IC50 [2] [µM] | IC50 (Pf Dd2) [µM] | IC50 [3] [nM] | stability to acid, in words [4]
1 | O=C1c2c3c(nc4ccccc24)CCN(Cc2ccccc2)C3N1c1ccc(F)c(F)c1 (stereo not shown) [Compound 177, 3-Benzyl-2-(3,4-difluorophenyl)-2a,3,4,5-tetrahydrobenzo[b]pyrrolo[4,3,2-de][1,6]naphthyridin-1(2H)-one] | 0.0113 | undiminished potency | 0.0103 | 0.0063 | > 12500 | Acidification causes the compound to begin conversion into another substance
2 | O=C(Nc1ccc(F)c(F)c1)c1c2c(nc3ccccc13)CCN(Cc1ccccc1)C2 [Compound 66, 2-Benzyl-N-(3,4-difluorophenyl)-1,2,3,4-tetrahydrobenzo[b][1,6]naphthyridine-10-carboxamide] | 0.0699 | – | 0.028 | 0.302 | > 50000 | –
